We go through 1 compound from patent publication US20250367191A1, “TREATMENT OF MITOCHONDRIAL DISEASES WITH A CNS-PENETRANT SGC STIMULATOR ZAGOCIGUAT” (Tisento Therapeutics Inc., priority 2022, published 2025).

The data set can be described thus: Open-label single-arm study in MELAS (NCT04475549): safety and tolerability. In kind it is in vivo, human. The note with it: 15 mg QD for 29 days, patients with MELAS. The text has this: This study was completed at 5 investigative sites in the United States. 8 participants completed the study. This study was an open-label, single-arm study evaluating the safety, tolerability, PK, and pharmacodynamics (PD) of Compound I when administered for up to 29 days to participants diagnosed with MELAS. Because this was the first study evaluating Compound I in a patient population, the primary objective was safety and tolerability. The overall study duration for participants was a maximum of 75 days, including the screening, treatment and follow up periods (ClinicalTrials.gov identifier NCT04475549).
The primary objective of the trial was to evaluate the safety and tolerability of Compound I when administered to a patient population of subjects with MELAS, by measuring AEs, SAEs and TEAEs leading to drug discontinuation.
Compound I is a CNS-active investigational drug. Although Compound I and other similar drugs in this class have not been associated with an increased risk of suicidal thinking or behavior, it was considered it important to monitor for such ideation or behavior before and during this clinical study. Therefore, participants were appropriately monitored and closely observed for suicidal ideation and behavior or any other unusual change in behavior. […]
A complete physical examination was to include examination and assessment of the following: general appearance, lymph nodes, nervous system; cardiovascular system; head, eyes, ears, nose, throat and skin; respiratory system, neck, mental status, abdomen/liver/spleen and musculoskeletal system. […] Clinically relevant findings that were present before study drug initiation on Day 1 were recorded as part of the participant's medical history. Beginning after study drug initiation on Day 1, new clinically relevant findings or worsening of an earlier finding were recorded as an AE. Height (cm) was measured only at Screening. Weight (kg) was recorded throughout the study. Body mass index was calculated and recorded at Screening.
All BP and pulse measurements were obtained with an automated BP device (left arm was preferred) prior to blood draws (or ≥10 m after a blood draw, if necessary). Supine BP was taken at Screening (only) and recorded as the average of 2 measurements obtained at 2-minute intervals after the participant had rested quietly in a semi-recumbent/supine position for ≥5 minutes. Orthostatic vital signs were taken at all scheduled visits and participant was to rest quietly in a supine/semi-recumbent position for ≥5 minutes before supine BP and pulse measurements were recorded, then assume sitting position for ≥1 minute, and finally assume a standing position for 2 (±1) minutes before standing measurements were recorded. […]

As for `Fc1ccccc1Cc1nc(-c2nc(C(F)(F)F)n[nH]2)cn2ccnc12` [Compound I, zagociguat], the SAEs result is reported as “no SAEs observed”; the “adverse events leading to treatment discontinuation” value is on record as “no adverse events leading to treatment discontinuation”; the “safety signals on clinical labs, vital signs, ECGs, or suicidal rating scale” value was “No safety signals”; the tolerability result is recorded as “well tolerated”.
